# Assays:
# [1] = tested on: human synovial sarcoma cell line SW982; experiment: In vivo combinatorial effect of NYZ-1010 and doxorubicin, human T cell transfer model; conditions: NSG mice
# Description: The administration was carried out on Day 41 (NYZ-1010) or on Days 40 and 47 (doxorubicin). Tumor growth inhibition (%) and change from baseline (%) were calculated according to the expressions given below.
# [2] = tested on: human lung adenocarcinoma cell line NCI-H522; experiment: In vivo combinatorial effect of NYZ-1010 and durvalumab, human T cell transfer model; conditions: NSG mice
# [3] = tested on: human lung adenocarcinoma cell line NCI-H522; experiment: In vivo combinatorial effect of NYZ-1010 and pembrolizumab, human T cell transfer model; conditions: 53 days after tumor inoculation; NSG mice; NYZ-1010 0.01 mg/kg Days 25, 32, 39; pembrolizumab 10 mg/kg Days 28, 32, 35, 39, 42
# Description: Tumor growth inhibition (%) was calculated according to the following equation.
# [4] = tested on: human esophageal cancer cell line OE-19; experiment: In vivo combinatorial effect of NYZ-1010 and sacituzumab govitecan-hziy, human T cell transfer model; conditions: NSG mice
# Description: The administration was carried out on Day 7 (NYZ-1010) or on days 6 and 13 (sacituzumab govitecan-hziy). Tumor growth inhibition (%) and change from baseline (%) were calculated according to the expressions given below.
molecule,measurement,setting,value
COc1cccc2c1C(=O)c1c(O)c3c(c(O)c1C2=O)C[C@@](O)(C(=O)CO)C[C@@H]3O[C@H]1C[C@H](N)[C@H](O)[C@H](C)O1 [doxorubicin],TGI (tumor growth inhibition),"[1]; 55 days after inoculation, NYZ-1010 0.01 mg/kg Day 41, doxorubicin 2.5 mg/kg Days 40 and 47",25.6%
same,Change from baseline (%),"[1]; group average, tumor volume on Day 55 vs Day 40 baseline",214.1 (n = 5) %
durvalumab: anti-PD-L1 antibody,TGI (tumor growth inhibition),"[2]; 49 days after inoculation, NYZ-1010 0.02 mg/kg Days 25 and 32, durvalumab 10 mg/kg intraperitoneally Days 28, 32, 35, 39",−0.8%
same,Change from baseline (%),"[2]; group average, tumor volume on Day 49 vs Day 24 baseline",204.7 (n = 5) %
pembrolizumab: anti-PD-1 antibody,TGI (tumor growth inhibition),[3],3.1%
sacituzumab govitecan-hziy,TGI (tumor growth inhibition),"[4]; 21 days after inoculation, NYZ-1010 0.01 mg/kg Day 7, sacituzumab govitecan-hziy 25 mg/kg days 6 and 13",35.4%
same,Change from baseline (%),"[4]; group average, tumor volume on Day 21 vs Day 6 baseline",1027.8 (n = 5) %

# Reference: patent US20250195645A1, “COMBINATION OF MULTISPECIFIC MOLECULE AND IMMUNE CHECKPOINT INHIBITOR” (DAIICHI SANKYO COMPANY, LIMITED, priority 2022, published 2025)
